According to patent publication US8017606B2, “Quinoline derivatives as antibacterial agents” (Janssen Pharmaceutica NV, priority 2005, dated 2011):
In brackets after ≈: the same amount, converted by molar mass. Counter-ions that a name gives are not always drawn.

Assays:
[1] = test system: Bacillus subtilis (ATCC43639); assay: Microtitre plate assay, IC90 determination; format: cell-based; conditions: 90% inhibitory concentration for bacterial growth, 37° C., resazurin fluorescence, read-out: IC90 (μg/ml) BSU 43639
Description: (§1) The bacteria used in this study were grown overnight in flasks containing 100 ml Mueller-Hinton Broth (Becton Dickinson—cat. no. 275730) in sterile de-ionized water, with shaking, at 37° C. Stocks (0.5 ml/tube) were stored at −70° C. until use. Bacteria titrations were performed in microtiter plates and colony forming units (CFUs) were determined. In general, an inoculum level of approximately 100 CFUs was used for susceptibility testing.
(§2) Anti Bacterial Susceptibility Testing: IC90 Determination
(§3) Flat-bottom, sterile 96-well plastic microtiter plates were filled with 180 μl of sterile deionized water, supplemented with 0.25% BSA. Subsequently, stock solutions (7.8×final test concentration) of compounds were added in 45 μl volumes in column 2 Serial five-fold dilutions (45 μl in 180 μl) were made directly in the microtiter plates from column 2 to reach column 11. Untreated control samples with (column 1) and without (column 12) inoculum were included in each microtiter plate. Depending on the bacteria type, approximately 10 to 60 CFU per well of bacteria inoculum (100 TCID50), in a volume of 100 μl in 2.8× Mueller-Hinton broth medium, was added to the rows A to H, except column 12. The same volume of broth medium without inoculum was added to column 12 in row A to H. The cultures were incubated at 37° C. for 24 hours under a normal atmosphere (incubator with open air valve and continuous ventilation). At the end of incubation, one day after inoculation, the bacterial growth was quantitated fluorometrically. Therefore resazurin (0.6 mg/ml) was added in a volume of 20 μl to all wells […], and the plates were re-incubated overnight. A change in colour from blue to pink indicated the growth of bacteria.
(§4) The fluorescence was read in a computer-controlled fluorometer (Cytofluor Biosearch) at an excitation wavelength of 530 nm and an emission wavelength of 590 nm. The % growth inhibition achieved by the compounds was calculated according to standard methods. The IC90 (expressed in μg/ml) was defined as the 90% inhibitory concentration for bacterial growth.

[2] = test system: Enterococcus faecalis (ATCC14506); assay: Microtitre plate assay, IC90 determination; format: cell-based; conditions: 90% inhibitory concentration for bacterial growth, 37° C., resazurin fluorescence, read-out: IC90 (μg/ml) EFA 14506
Description: as §1, §2, §3, §4

[3] = test system: Enterococcus faecalis (ATCC29212); assay: Microtitre plate assay, IC90 determination; format: cell-based; conditions: 90% inhibitory concentration for bacterial growth, 37° C., resazurin fluorescence, read-out: IC90 (μg/ml) EFA 29212
Description: as §1, §2, §3, §4

[4] = test system: Listeria monocytogenes (ATCC49594); assay: Microtitre plate assay, IC90 determination; format: cell-based; conditions: 90% inhibitory concentration for bacterial growth, 37° C., resazurin fluorescence, read-out: IC90 (μg/ml) LMO 49594
Description: as §1, §2, §3, §4

[5] = test system: Pseudomonas aeruginosa (ATCC27853); assay: Microtitre plate assay, IC90 determination; format: cell-based; conditions: 90% inhibitory concentration for bacterial growth, 37° C., resazurin fluorescence, read-out: IC90 (μg/ml) PAE 27853
Description: as §1, §2, §3, §4

[6] = test system: Staphylococcus aureus (ATCC25923); assay: Microtitre plate assay, IC90 determination; format: cell-based; conditions: 90% inhibitory concentration for bacterial growth, 37° C., resazurin fluorescence, read-out: IC90 (μg/ml) STA 25923
Description: as §1, §2, §3, §4

[7] = test system: Staphylococcus aureus (ATCC29213); assay: Microtitre plate assay, IC90 determination; format: cell-based; conditions: 90% inhibitory concentration for bacterial growth, 37° C., resazurin fluorescence, read-out: IC90 (μg/ml) STA 29213
Description: as §1, §2, §3, §4

[8] = test system: Streptococcus mutans (ATCC33402); assay: Microtitre plate assay, IC90 determination; format: cell-based; conditions: 90% inhibitory concentration for bacterial growth, 37° C., resazurin fluorescence, read-out: IC90 (μg/ml) SMU 33402
Description: as §1, §2, §3, §4

[9] = test system: Streptococcus pneumoniae (ATCC6305); assay: Microtitre plate assay, IC90 determination; format: cell-based; conditions: 90% inhibitory concentration for bacterial growth, 37° C., resazurin fluorescence, read-out: IC90 (μg/ml) SPN 6305
Description: as §1, §2, §3, §4

[10] = test system: Streptococcus pyogens (ATCC8668); assay: Microtitre plate assay, IC90 determination; format: cell-based; conditions: 90% inhibitory concentration for bacterial growth, 37° C., resazurin fluorescence, read-out: IC90 (μg/ml) SPY 8668
Description: as §1, §2, §3, §4

[11] = test system: methicilline resistant Staphylococcus aureus (MRSA) (a clinical isolate from the University of Antwerp); assay: Microtitre plate assay, IC90 determination; format: cell-based; conditions: 90% inhibitory concentration for bacterial growth, 37° C., resazurin fluorescence, read-out: IC90 (μg/ml) STA RMETHIC
Description: as §1, §2, §3, §4

[12] = test system: Staphylococcus aureus (ATCC43300); assay: Microtitre plate assay, IC90 determination; format: cell-based; conditions: 90% inhibitory concentration for bacterial growth, 37° C., resazurin fluorescence, read-out: IC90 (μg/ml) STA 43300
Description: as §1, §2, §3, §4

Q: Which melting point does the source give for `CN(C)CCC(O)(c1cc(F)cc(F)c1)c1ccc2nc(-c3cccnc3)cc(-c3ccccc3)c2c1` (centres unmarked) (as salt: salt) [Compound 42] here?
A: 151 °C

Q: With `CN(C)CCC(O)(c1cc(F)cc(F)c1)c1cccc2nc(N(C)C)c(-c3ccccc3)cc12` (centres unmarked) (as salt: salt) [Compound 45] as the molecule, how does the melting point read?
A: 136 °C

Q: With `COc1nc2c(C(O)(CCN(C)C)c3cc(F)cc(F)c3)cc(-c3cccnc3)cc2cc1-c1ccccc1` (centres unmarked) (as salt: salt) [Compound 64] as the molecule, how does the melting point read?
A: 156 °C

Q: For `COc1nc2cccc(C(O)(CCN(C)C)c3cc(F)cc(F)c3)c2cc1-c1ccccc1` (centres unmarked) [Compound 1], which IC90 [1] is on record?
A: 11.3 µg/mL (≈ 25.2 µM)

Q: What about the IC90 [2] of the same molecule?
A: 11.3 µg/mL (≈ 25.2 µM)

Q: What about the IC90 [3] of the same molecule?
A: 11.3 µg/mL (≈ 25.2 µM)

Q: What about the IC90 [4] of the same molecule?
A: 11.3 µg/mL (≈ 25.2 µM)

Q: What about the IC90 [5] of the same molecule?
A: 11.3 µg/mL (≈ 25.2 µM)

Q: And the IC90 [6]?
A: 11.3 µg/mL (≈ 25.2 µM)

Q: And the IC90 [7]?
A: 11.3 µg/mL (≈ 25.2 µM)

Q: And the IC90 [8]?
A: 9 µg/mL (≈ 20.1 µM)

Q: What about the IC90 [9] of the same molecule?
A: 11.3 µg/mL (≈ 25.2 µM)

Q: What about the IC90 [10] of the same molecule?
A: 9 µg/mL (≈ 20.1 µM)

Q: What about the IC90 [11] of the same molecule?
A: 11.3 µg/mL (≈ 25.2 µM)

Q: For `COc1nc2c(C(O)(CCN(C)C)c3ccccc3)cc(Br)cc2cc1Cc1ccccc1` (centres unmarked) [Compound 8], which IC90 [1] is on record?
A: 12.7 µg/mL (≈ 25.1 µM)

Q: And the IC90 [2]?
A: 11.3 µg/mL (≈ 22.4 µM)

Q: What about the IC90 [4] of the same molecule?
A: 40.2 µg/mL (≈ 79.5 µM)

Q: And the IC90 [5]?
A: 12.7 µg/mL (≈ 25.1 µM)

Q: What about the IC90 [6] of the same molecule?
A: 11.3 µg/mL (≈ 22.4 µM)

Q: What about the IC90 [7] of the same molecule?
A: 10.1 µg/mL (≈ 20 µM)

Q: And the IC90 [8]?
A: 10.1 µg/mL (≈ 20 µM)

Q: What about the IC90 [9] of the same molecule?
A: 11.3 µg/mL (≈ 22.4 µM)

Q: And the IC90 [10]?
A: 10.1 µg/mL (≈ 20 µM)

Q: And the IC90 [11]?
A: 11.3 µg/mL (≈ 22.4 µM)

Q: What about the melting point of the same molecule?
A: 66 °C

Q: With `COc1nc2c(C(O)(CCN(C)C)c3cccs3)cc(Br)cc2cc1Cc1ccccc1` (centres unmarked) [Compound 10] as the molecule, how does the IC90 [3] read?
A: 10.2 µg/mL (≈ 19.9 µM)

Q: What about the IC90 [4] of the same molecule?
A: 10.2 µg/mL (≈ 19.9 µM)

Q: And the IC90 [5]?
A: 12.9 µg/mL (≈ 25.2 µM)

Q: And the IC90 [6]?
A: 11.5 µg/mL (≈ 22.5 µM)

Q: What about the IC90 [7] of the same molecule?
A: 12.9 µg/mL (≈ 25.2 µM)

Q: And the IC90 [12]?
A: 12.9 µg/mL (≈ 25.2 µM)

Q: And the IC90 [8]?
A: 10.2 µg/mL (≈ 19.9 µM)

Q: And the IC90 [9]?
A: 11.5 µg/mL (≈ 22.5 µM)

Q: And the IC90 [10]?
A: 10.2 µg/mL (≈ 19.9 µM)

Q: What about the IC90 [11] of the same molecule?
A: 10.2 µg/mL (≈ 19.9 µM)

Q: Which IC90 [1] does the source give for `CN(C)CCC(O)(Cc1c(-c2ccccc2)c(-c2ccccc2)nc2ccccc12)c1cc(F)cc(F)c1` (centres unmarked) [Compound 21] here?
A: 12.8 µg/mL (≈ 25.2 µM)

Q: And the IC90 [3]?
A: 12.8 µg/mL (≈ 25.2 µM)

Q: What about the IC90 [4] of the same molecule?
A: 12.8 µg/mL (≈ 25.2 µM)

Q: And the IC90 [5]?
A: 12.8 µg/mL (≈ 25.2 µM)

Q: And the IC90 [6]?
A: 12.8 µg/mL (≈ 25.2 µM)

Q: What about the IC90 [7] of the same molecule?
A: 12.8 µg/mL (≈ 25.2 µM)

Q: And the IC90 [9]?
A: 12.8 µg/mL (≈ 25.2 µM)

Q: And the IC90 [10]?
A: 12.8 µg/mL (≈ 25.2 µM)

Q: And the IC90 [11]?
A: 12.8 µg/mL (≈ 25.2 µM)

Q: What about the melting point of the same molecule?
A: 173 °C

Q: For `CN(C)CCC(O)(c1cc(F)cc(F)c1)c1cc(Br)cc2cc(-c3ccccc3)c(-n3ccnc3)nc12` (centres unmarked) [Compound 22], which IC90 [3] is on record?
A: 14.2 µg/mL (≈ 25.2 µM)

Q: What about the IC90 [4] of the same molecule?
A: 14.2 µg/mL (≈ 25.2 µM)

Q: And the IC90 [5]?
A: 14.2 µg/mL (≈ 25.2 µM)

Q: What about the IC90 [6] of the same molecule?
A: 12.6 µg/mL (≈ 22.4 µM)

Q: And the IC90 [7]?
A: 14.2 µg/mL (≈ 25.2 µM)

Q: What about the IC90 [8] of the same molecule?
A: 11.2 µg/mL (≈ 19.9 µM)

Q: What about the IC90 [9] of the same molecule?
A: 12.6 µg/mL (≈ 22.4 µM)

Q: What about the IC90 [10] of the same molecule?
A: 11.2 µg/mL (≈ 19.9 µM)

Q: And the IC90 [11]?
A: 14.2 µg/mL (≈ 25.2 µM)

Q: What about the melting point of the same molecule?
A: 136 °C

Q: Which IC90 [1] does the source give for `CN(C)CCC(O)(c1cccc2ccccc12)c1cc(Br)cc2cc(Cc3ccccc3)c(-n3ccnc3)nc12` (centres unmarked) [Compound 24] here?
A: 11.8 µg/mL (≈ 19.9 µM)

Q: What about the IC90 [2] of the same molecule?
A: 11.8 µg/mL (≈ 19.9 µM)

Q: What about the IC90 [3] of the same molecule?
A: 14.9 µg/mL (≈ 25.2 µM)

Q: What about the IC90 [4] of the same molecule?
A: 14.9 µg/mL (≈ 25.2 µM)

Q: What about the IC90 [5] of the same molecule?
A: 14.9 µg/mL (≈ 25.2 µM)

Q: What about the IC90 [6] of the same molecule?
A: 13.2 µg/mL (≈ 22.3 µM)

Q: And the IC90 [7]?
A: 11.8 µg/mL (≈ 19.9 µM)

Q: And the IC90 [8]?
A: 11.8 µg/mL (≈ 19.9 µM)

Q: What about the IC90 [9] of the same molecule?
A: 14.9 µg/mL (≈ 25.2 µM)

Q: And the IC90 [10]?
A: 11.8 µg/mL (≈ 19.9 µM)

Q: And the IC90 [11]?
A: 14.9 µg/mL (≈ 25.2 µM)

Q: Which IC90 [1] does the source give for `CN(C)CCC(O)(c1cccc2ccccc12)c1cc(Br)cc2cc(Cc3ccccc3)c(N3CCN(c4n[nH]c5ccccc45)CC3)nc12` (centres unmarked) [Compound 26] here?
A: 14.5 µg/mL (≈ 20 µM)

Q: And the IC90 [2]?
A: 14.5 µg/mL (≈ 20 µM)

Q: And the IC90 [3]?
A: 3.6 µg/mL (≈ 4.96 µM)

Q: And the IC90 [4]?
A: 3.6 µg/mL (≈ 4.96 µM)

Q: And the IC90 [5]?
A: 2.9 µg/mL (≈ 4 µM)

Q: What about the IC90 [6] of the same molecule?
A: 7.3 µg/mL (≈ 10.1 µM)

Q: What about the IC90 [7] of the same molecule?
A: 16.3 µg/mL (≈ 22.5 µM)

Q: What about the IC90 [8] of the same molecule?
A: 2.9 µg/mL (≈ 4 µM)

Q: And the IC90 [9]?
A: 3.6 µg/mL (≈ 4.96 µM)

Q: And the IC90 [10]?
A: 2.9 µg/mL (≈ 4 µM)

Q: And the IC90 [11]?
A: 18.2 µg/mL (≈ 25.1 µM)
